One experiment addresses hCA IX (Homo sapiens, UniProt Q16790). The experiment in a line: hCA IX enzyme inhibition assay (4-NPA hydrolysis).
For the next experiment, the target named is hCA II (Homo sapiens, UniProt P00918). The experiment is described as follows: hCA II enzyme inhibition assay (4-NPA hydrolysis).
The target of another experiment is hCA XII (Homo sapiens, UniProt O43570). The experiment is described as follows: hCA XII enzyme inhibition assay (4-NPA hydrolysis).
Experiment [1] has as its system human colon cancer HT-29 cells. The experiment in a line: CCK-8 cell viability assay, HT-29. In kind it is cell-based. Particulars: Homo sapiens, HT-29; Table S2. The procedure:
(§1) The MDA-MB-231, HT-29 and MG-63 cell lines were provided by KeyGEN BioTECH Ltd (Nanjing, Jiangsu, China). The cells were digested and counted to prepare a cell suspension of 5.0 × 10^4 cells/mL, and then 100 μL of cell suspension was added to each well of the 96-well cell culture plate. The plates were placed in a 37 °C, 5% CO2 incubator (Corning Incorporated, Corning, New York, USA) for 24 h. The drug was diluted with the culture medium to the required concentration, ed100 μL of the corresponding drug-containing medium was added to each well, and a negative control group was set up at the same time. The 96-well cell culture plates were placed into a normoxic incubator (37 °C, 5% CO2) and hypoxic incubator (37 °C, 5% CO2, 0.5% O2, 94.5% N2) for 48 h. Finally, the 96-well plate was stained with CCK-8 and the OD value determined (λ = 450 nm).
(In general: Formazan colour is commonly taken as a measure of viable cells.)

For experiment [2], the system named is breast adenocarcinoma MDA-MB-231 cells. The experiment in a line: CCK-8 cell viability assay, MDA-MB-231. Type of experiment: cell-based, human. Particulars: Homo sapiens, MDA-MB-231; Table S2. As for the experimental part: as §1

The IC50 is the concentration that gives 50% inhibition. A lower IC50 goes with greater potency.

Each structure is given as a SMILES string. ≈ marks a conversion by molar mass, not a printed value.

Chain of hCA XII (O43570 25-354): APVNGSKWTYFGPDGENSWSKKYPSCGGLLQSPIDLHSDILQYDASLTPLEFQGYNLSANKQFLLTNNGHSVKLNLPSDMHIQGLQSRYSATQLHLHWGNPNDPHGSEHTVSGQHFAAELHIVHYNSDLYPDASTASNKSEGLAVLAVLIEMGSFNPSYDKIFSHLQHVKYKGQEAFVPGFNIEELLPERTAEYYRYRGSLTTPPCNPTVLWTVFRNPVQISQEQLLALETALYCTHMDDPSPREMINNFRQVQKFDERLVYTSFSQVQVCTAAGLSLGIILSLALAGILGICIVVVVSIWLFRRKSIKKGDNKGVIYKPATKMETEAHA
Protocol for hCA II: (§2) Carbonic anhydrase can catalyze the hydrolysis of 4-nitrophenyl acetate (4-NPA). […] The experimental buffer consisted of 15 mmol/L 4-(2-hydroxyethyl)-1-piperazineethanesulfonic acid (HEPES) (pH = 7.40), 0.01% tetraethylene glycol monododecyl ether (Brij), and 100 mmol/L NaCl. […] Then, 18 μL of enzyme solution was transferred into 384-well plates in duplicate. Stock solutions of the inhibitors (10.0 mmol/L) were prepared using DMSO as solvent, and then diluted 1:3 with DMSO. […] Then 2.00 μL of each inhibitor was added to each well. All compounds were allowed to incubate with the enzyme for 15 min at 25 °C to form the Enzyme-Inhibitor (E-I) complex. After that, substrate 4-NPA (1.00 mmol/L, 20.00 μL, Sigma-Aldrich, St. Louis, MI, USA) was added into the E-I complex solution and incubated for 60, 90, 90 min at 25 °C, respectively.
Protocol for hCA IX: as §2
Protocol for hCA XII: as §2

On to `Nc1ccc(C(=O)Nc2nnc(S(N)(=O)=O)s2)cc1` [Compound 12a, 4-Amino-N-(5-sulfamoyl-1,3,4-thiadiazol-2-yl)benzamide], for which, at hCA IX, the IC50 is 44.6 ± 8.3 nM.
As for `Nc1cccc(C(=O)Nc2nnc(S(N)(=O)=O)s2)c1` [Compound 12b, 3-Amino-N-(5-sulfamoyl-1,3,4-thiadiazol-2-yl)benzamide], the IC50 was determined as 79.1 ± 5.4 nM against hCA II and 63.8 ± 6.3 nM against hCA IX.
For `Nc1ccc(C(=O)Nc2nnc(S(N)(=O)=O)s2)cc1F` [Compound 12c, 4-Amino-3-fluoro-N-(5-sulfamoyl-1,3,4-thiadiazol-2-yl)benzamide] the same measures were 242 ± 9.4 nM and 41.3 ± 6.2 nM.
On the same counts, the results for `Nc1ccc(C(=O)Nc2nnc(S(N)(=O)=O)s2)cc1Cl` [Compound 12d, 4-Amino-3-chloro-N-(5-sulfamoyl-1,3,4-thiadiazol-2-yl)benzamide] are 401 ± 12.3 nM and 36.5 ± 7.6 nM.
For the compound `Nc1ccc(C(=O)Nc2nnc(S(N)(=O)=O)s2)cc1Br` [Compound 12e, 4-Amino-3-bromo-N-(5-sulfamoyl-1,3,4-thiadiazol-2-yl)benzamide], the half-maximal inhibitory concentration (IC50) stood at 543 ± 10.3 nM on hCA II and 65.9 ± 8.3 nM against hCA IX.
For the compound `Nc1ccc(C(=O)Nc2nnc(S(N)(=O)=O)s2)cc1[N+](=O)[O-]` [Compound 12f, 4-Amino-3-nitro-N-(5-sulfamoyl-1,3,4-thiadiazol-2-yl)benzamide], the figures for the IC50 against hCA II and at hCA IX were 701 ± 13.2 nM and 55.1 ± 11.5 nM, respectively. Further, the “selectivity: inhibitory activity for hCA IX higher than that for hCA II” value on hCA IX (hCA IX over hCA II) is reported as 10 times.
`Cc1cc(C(=O)Nc2nnc(S(N)(=O)=O)s2)ccc1N` [Compound 12g, 4-Amino-3-methyl-N-(5-sulfamoyl-1,3,4-thiadiazol-2-yl)benzamide]: the results for the 50% inhibitory concentration (IC50) on hCA II and against hCA IX were 120 ± 14.8 nM and 43.8 ± 6.6 nM, respectively.
With `COc1cc(C(=O)Nc2nnc(S(N)(=O)=O)s2)ccc1N` [Compound 12h, 4-Amino-3-methoxy-N-(5-sulfamoyl-1,3,4-thiadiazol-2-yl)benzamide], the IC50 at hCA II is 147 ± 15.3 nM; at hCA IX, 36.4 ± 8.3 nM.
As to `NS(=O)(=O)c1nnc(NC(=O)c2ccc(NC(=O)CCCC(=O)N[C@@H]3O[C@H](CO)[C@@H](O)[C@H](O)[C@H]3O)c(F)c2)s1` [Compound 14c, N^1-(2-Fluoro-4-((5-sulfamoyl-1,3,4-thiadiazol-2-yl)carbamoyl)phenyl)-N^5-((2R,3R,4S,5S,6R)-3,4,5-trihydroxy-6-(hydroxymethyl)tetrahydro-2H-pyran-2-yl)glutaramide], the IC50 against hCA II was found to be 215 ± 9.5 nM; against hCA IX it was 76.6 ± 6.2 nM; on hCA XII, 81.8 ± 11.1 nM.
Take `NS(=O)(=O)c1nnc(NC(=O)c2ccc(NC(=O)CCCC(=O)N[C@@H]3O[C@H](CO)[C@@H](O)[C@H](O)[C@H]3O)c(Cl)c2)s1` [Compound 14d, N^1-(2-Chloro-4-((5-sulfamoyl-1,3,4-thiadiazol-2-yl)carbamoyl)phenyl)-N^5-((2R,3R,4S,5S,6R)-3,4,5-trihydroxy-6-(hydroxymethyl)tetrahydro-2H-pyran-2-yl)glutaramide]: the figures for the half-inhibitory concentration (IC50) against hCA II and at hCA IX were 765 ± 15.1 nM and 280 ± 10.2 nM, respectively.
On to `NS(=O)(=O)c1nnc(NC(=O)c2ccc(NC(=O)CCCC(=O)N[C@@H]3O[C@H](CO)[C@@H](O)[C@H](O)[C@H]3O)c(Br)c2)s1` [Compound 14e, N^1-(2-Bromo-4-((5-sulfamoyl-1,3,4-thiadiazol-2-yl)carbamoyl)phenyl)-N^5-((2R,3R,4S,5S,6R)-3,4,5-trihydroxy-6-(hydroxymethyl)tetrahydro-2H-pyran-2-yl)glutaramide], for which the IC50 on hCA II was determined as 886 ± 13.7 nM; against hCA IX it was 1082 ± 8.5 nM.
Consider `NS(=O)(=O)c1nnc(NC(=O)c2ccc(NC(=O)CCCC(=O)N[C@@H]3O[C@H](CO)[C@@H](O)[C@H](O)[C@H]3O)c([N+](=O)[O-])c2)s1` [Compound 14f, N^1-(2-Nitro-4-((5-sulfamoyl-1,3,4-thiadiazol-2-yl)carbamoyl)phenyl)-N^5-((2R,3R,4S,5S,6R)-3,4,5-trihydroxy-6-(hydroxymethyl)tetrahydro-2H-pyran-2-yl)glutaramide], for which the IC50 came out at 995 ± 10.6 nM against hCA II and 117 ± 6.9 nM against hCA IX.
Regarding `Cc1cc(C(=O)Nc2nnc(S(N)(=O)=O)s2)ccc1NC(=O)CCCC(=O)N[C@@H]1O[C@H](CO)[C@@H](O)[C@H](O)[C@H]1O` [Compound 14g, N^1-(2-Methyl-4-((5-sulfamoyl-1,3,4-thiadiazol-2-yl)carbamoyl)phenyl)-N^5-((2R,3R,4S,5S,6R)-3,4,5-trihydroxy-6-(hydroxymethyl)tetrahydro-2H-pyran-2-yl)glutaramide], the IC50 on hCA II turned out to be 165 ± 9.1 nM; against hCA IX, 53.4 ± 6.2 nM; against hCA XII, 70.5 ± 10.9 nM.
As to `NS(=O)(=O)c1nnc(NC(=O)c2ccc(NC(=O)CCC(=O)NC3OC(CO)C(O)C(O)C3O)cc2)s1` [Compound 14i, N^1-(4-((5-Sulfamoyl-1,3,4-thiadiazol-2-yl)carbamoyl)phenyl)-N^4-((2R,3R,4S,5S,6R)-3,4,5-trihydroxy-6-(hydroxymethyl)tetrahydro-2H-pyran-2-yl)succinimide], the IC50 on hCA II was 197 ± 7.9 nM; on hCA IX, 54.9 ± 6.2 nM; against hCA XII, 52.8 ± 11.4 nM.
For the compound `NS(=O)(=O)c1nnc(NC(=O)c2cccc(NC(=O)CCC(=O)N[C@@H]3O[C@H](CO)[C@@H](O)[C@H](O)[C@H]3O)c2)s1` [Compound 14j, N^1-(3-((5-Sulfamoyl-1,3,4-thiadiazol-2-yl)carbamoyl)phenyl)-N^4-((2R,3R,4S,5S,6R)-3,4,5-trihydroxy-6-(hydroxymethyl)tetrahydro-2H-pyran-2-yl)succinimide], the results for the IC50 against hCA II, against hCA IX and at hCA XII were 260 ± 12.6 nM, 69.4 ± 5.7 nM and 40.6 ± 6.9 nM, respectively.
Turning to `NS(=O)(=O)c1nnc(NC(=O)c2ccc(NC(=O)CCC(=O)N[C@@H]3O[C@H](CO)[C@@H](O)[C@H](O)[C@H]3O)c(F)c2)s1` [Compound 14k, N^1-(2-Fluoro-4-((5-sulfamoyl-1,3,4-thiadiazol-2-yl)carbamoyl)phenyl)-N^4-((2R,3R,4S,5S,6R)-3,4,5-trihydroxy-6-(hydroxymethyl)tetrahydro-2H-pyran-2-yl)succinimide], the IC50 is 474 ± 7.1 nM at hCA II and 141 ± 8.1 nM at hCA IX.
Regarding `NS(=O)(=O)c1nnc(NC(=O)c2ccc(NC(=O)CCC(=O)N[C@@H]3O[C@H](CO)[C@@H](O)[C@H](O)[C@H]3O)c(Cl)c2)s1` [Compound 14l, N^1-(2-Chloro-4-((5-sulfamoyl-1,3,4-thiadiazol-2-yl)carbamoyl)phenyl)-N^4-((2R,3R,4S,5S,6R)-3,4,5-trihydroxy-6-(hydroxymethyl)tetrahydro-2H-pyran-2-yl)succinimide], the IC50 against hCA II was 612 ± 8.5 nM; at hCA IX, 256 ± 7.9 nM.
`NS(=O)(=O)c1nnc(NC(=O)c2ccc(NC(=O)CCC(=O)N[C@@H]3O[C@H](CO)[C@@H](O)[C@H](O)[C@H]3O)c(Br)c2)s1` [Compound 14m, N^1-(2-Bromo-4-((5-sulfamoyl-1,3,4-thiadiazol-2-yl)carbamoyl)phenyl)-N^4-((2R,3R,4S,5S,6R)-3,4,5-trihydroxy-6-(hydroxymethyl)tetrahydro-2H-pyran-2-yl)succinimide]: the IC50 against hCA II worked out at 824 ± 11.1 nM; at hCA IX, 865 ± 10.7 nM.
For the compound `NS(=O)(=O)c1nnc(NC(=O)c2ccc(NC(=O)CCC(=O)N[C@@H]3O[C@H](CO)[C@@H](O)[C@H](O)[C@H]3O)c([N+](=O)[O-])c2)s1` [Compound 14n, N^1-(2-Nitro-4-((5-sulfamoyl-1,3,4-thiadiazol-2-yl)carbamoyl)phenyl)-N^4-((2R,3R,4S,5S,6R)-3,4,5-trihydroxy-6-(hydroxymethyl)tetrahydro-2H-pyran-2-yl)succinimide], the figures for the IC50 at hCA II and on hCA IX were 1400 ± 24.6 nM and 291 ± 10.9 nM, respectively.
For `Cc1cc(C(=O)Nc2nnc(S(N)(=O)=O)s2)ccc1NC(=O)CCC(=O)N[C@@H]1O[C@H](CO)[C@@H](O)[C@H](O)[C@H]1O` [Compound 14o, N^1-(2-Methy-4-((5-sulfamoyl-1,3,4-thiadiazol-2-yl)carbamoyl)phenyl)-N^4-((2R,3R,4S,5S,6R)-3,4,5-trihydroxy-6-(hydroxymethyl)tetrahydro-2H-pyran-2-yl)succinimide] the same measures were 270 ± 13.9 nM and 135 ± 7 nM.
For the compound `CC(=O)O[C@H]1C(=O)[C@@]2(C)[C@H]([C@H](OC(=O)c3ccccc3)[C@]3(O)C[C@H](OC(=O)[C@H](O)[C@@H](NC(=O)c4ccccc4)c4ccccc4)C(C)=C1C3(C)C)[C@]1(OC(C)=O)CO[C@@H]1C[C@@H]2O` [Taxol, reference compound], the figures for the IC50 in experiment [1] and in experiment [2] were 0.111 µg/mL (≈ 0.13 µM) and 0.099 µg/mL (≈ 0.116 µM), respectively.

Values taken from paper PMC8196973, “Synthesis, Molecular Docking Analysis and Biological Evaluations of Saccharide-Modified Thiadiazole Sulfonamide Derivatives” (International Journal of Molecular Sciences, 2021).
